Series [1] deals with Zucker fa/fa rats. Put plainly: acute i.p. administration, food intake in fasted rats. It counts as in vivo, rat. The following applies: S38151 30 mg/kg i.p. As to the method: Zucker fa/fa rats were habituated in the same conditions as Wistar rats (described in section “Acute Central Peptide Administration and Feeding Studies in Wistar Rats”). At 09:00 on the day of study, after fasting for 24 h, either vehicle (normal saline) or S38151 [30 mg/kg (20 μmol/kg)] was administered intraperitoneally (i.p.).
Figure 6 The effect of S38151 on food intake in Zucker fa/fa rats after acute peripheral administration. Rats were fasted for 24 h, and then injected (i.p.) at the beginning of the light phase with vehicle (normal saline) or 30 mg/kg S38151. Cumulative food intake was measured 1, 2, 4, 6, and 24 h after injection. Results are expressed as mean ± SEM (n = 16 rats per group).

The test system of series [2] is Zucker fa/fa rats. Put plainly: conditioned taste aversion. It counts as in vivo, rat. The following applies: test days 4, 7, 11, 14 versus control; lithium chloride 75 mg/kg i.p.; S38151 20 nmol/kg i.c.v.; n = 10-11.
Series [3] has as its system ob/ob mice. Description: daily i.p. S38151 in ob/ob mice. It counts as in vivo, mouse. As to the method:
In these studies, 13-week-old female C57BL/6J, ob/ob, and MCH1-KO mice were used. The mice were maintained on a 12-h light/dark cycle (lights on at 07:30 and off at 19:30) at 22 ± 3°C, and supplied with food pellets (6 mm diameter A03, UAR Laboratory chow, Epinay Villemuisson France) and tap water ad libitum. To induce obesity in C57BL/6J (creating diet-induced obese, or DIO, mice), mice were fed a high-fat diet (60 kcal% fat, 20 kcal% protein, 20 kcal% carbohydrate, ref D12492 from Research Diets, New Brunswick, NJ08901, USA) for 8 weeks starting at 4 weeks of age. In these experiments, DIO mice, ob/ob mice, and MCH^−/−1 mice were individually housed in a modular chamber that was placed on an activity platform to concurrently measure the food intake, water intake, and activity of the mice (ADDENFI, Les Cordeliers, Paris, France). For at least 2 weeks before experimentation, mice were habituated to a diet of 6 mm diameter food pellets of the following composition: 67.5% food flour, 26.5% sucrose, 5% gum tragacanth, 1.25% magnesium stearate (A03 UAR, Orge, France), and to i.p. injection. After this habituation period, food intake, drink intake, and body weight were measured for 3 consecutive days. The mice were randomized into three groups based on their food and water intake over the three preceding 24-h periods, and on their body weight. Next, the quantity of food eaten over each 24-h period during the 5 days of i.p. treatment with S38151 [10 and 30 mg/kg/day (7 and 20 μmol/kg/day)] or vehicle was determined and corrected for spillage.
Figure 8 The effects of repeated daily S38151 injection on food and water intake, body weight, and motility in ob/ob mice. Genetically modified ob/ob mice were administered S38151 (10 and 30 mg/kg, i.p.) or vehicle (normal saline i.p.) for 6 consecutive days. Results are expressed as mean ± SEM (n = 8 mice per group). White squares for controls, dark squares for 10 mg/kg, and dark triangles for 30 mg/kg.

For series [4], the system named is Zucker fa/fa rats. Put plainly: daily i.c.v. administration, feeding, drinking, body weight and motility. In kind it is in vivo, rat. From the text: Wistar and Zucker fa/fa rats were anesthetized with Forène (Abbott Laboratories, Queenborough, UK), and a stainless steel guide cannula (Plastic Products Co, Roanoke, Va, USA) was stereotaxically implanted into the right lateral ventricle at the following coordinates relative to the bregma: AP −0.8 mm, L = −1.2 mm, and V = −3.5 mm. After a 7-day recovery period, during which the animals were handled each day to minimize non-specific stress, they were lightly anesthetized with Forène. Human/mouse/rat MCH (1 μg in a volume of 2.5 μ L, Bachem, Voisins-le-Bretonneux, France) or an equivalent volume of artificial cerebrospinal fluid (CSF) was then injected through the intraventricular cannula. Immediately after injection, the animals quickly recovered and were returned to their home cages. Only those animals responding within 2 h with a robust increase in food intake, indicating correct cannula placement, were used in the experiments described below. Two days after MCH injection, the rats were randomly assigned to different groups and studied in one of the following protocols.
The TSE Drinking and Feeding Monitor system was used to analyze ingestive behavior in these experiments (TSE Technical & Scientific Equipment GmbH, Bad Homburg, Germany). The rats' motility was also determined in these experiments using the MoTil® system (TSE). Zucker fa/fa rats were placed individually into plastic cages to which were attached both a feeding and a drinking sensor. The animals were habituated to normal food (A03 UAR, Orge, France) and water for at least 2 weeks before experimentation. […] The injections were repeated daily for a total of 7 days. After 7 days, the injections were stopped and each measured parameter was followed during a 5-day washout period.
Figure 4 The effects of repeated daily central administration of S38151 on food intake, water intake, body weight, and motility in Zucker fa/fa rats. One hour prior the beginning of the dark phase, different doses of S38151 (5, 10, or 20 nmol/kg) or vehicle were injected (i.c.v.) once daily for 7 days, followed by a washout period of 5 days. […] Repeated measures Two-Way ANOVA (treatment × time) was performed with a repeated measure of the factor “time.” Significant treatment and interaction effects are shown on the graph. ^+P < 0.05; ^++P < 0.01; ^+++P < 0.001.

Where a SMILES comes first, the peptide text is derived from it.

On to `CSCC[C@@H]1NC(=O)[C@@H](NC(=O)c2ccc(NC(=N)N)cc2)CSSC[C@@H](C(=O)N[C@@H](Cc2c[nH]c3ccccc23)C(=O)O)NC(=O)[C@@H]2CCCN2C(=O)[C@H](CCCNC(=N)N)NC(=O)[C@H](Cc2ccc(O)cc2)NC(=O)[C@H](C(C)C)NC(=O)[C@H](CCCNC(=N)N)NC(=O)[C@H](CC(C)C)NC1=O` [S38151, p-guanidinobenzoyl-(Des-Gly10)-MCH (7–17)] (HELM PEPTIDE1{[N=C(N)Nc1ccc(C(=O)[*:2])cc1].C.M.L.R.V.Y.R.P.C.W}$PEPTIDE1,PEPTIDE1,2:R3-10:R3$$$V2.0; C-terminus assumed), for which the “food intake, first hour” value in series [1] (24-h fasted Zucker fa/fa rats, control 3.6 ± 0.4 g, mean ± SEM, n = 16) is on record as 0.09 ± 0.06 g. In addition, in series [1] (Zucker fa/fa rats), the “inhibition of food consumption within 1 h” value was “complete inhibition”. Besides, in series [1] (cumulative food intake versus control), the “decrease in food intake up to 24 h after drug administration” value was “maintained statistical significance”. Also, the 0.2% saccharine consumption entry in series [2] is “did not affect”. Moreover, the glycemia and insulinemia entry in series [3] (S38151 30 mg/kg i.p., day 6, data not shown) is reported as “significant reductions”. Besides, the body weight entry in series [3] (S38151 10 and 30 mg/kg i.p. daily for 6 days, 30 mg/kg significant at days 1, 4, 5, 6) is recorded as “dose-dependent reduction”. The water intake result is “did not reach statistical significance” in series [3] (S38151 10 and 30 mg/kg i.p. daily for 6 days, same profile as food intake); “significantly inhibited” in series [4] (S38151 i.c.v. daily for 7 days, all injected doses except the 5 nmol dose). The food intake result is listed as “dose-dependent inhibition” in series [3] (S38151 10 and 30 mg/kg i.p. daily for 6 days, significant from day 3 only at 30 mg/kg, n = 8); “dose-dependent inhibition” in series [4] (S38151 5, 10, 20 nmol/kg i.c.v. daily for 7 days, significant only at 20 nmol/kg, n = 8). Besides, the “body weight gain during the washout period” value in series [4] (5-day washout after 10 nmol/kg S38151 i.c.v. for 7 days) is on record as “remained significantly less than control values”. For the same compound, the “motility during the washout period” value in series [4] (5-day washout after 20 nmol/kg S38151 i.c.v. for 7 days) is “remained significantly elevated”. In series [4] (S38151 10 and 20 nmol/kg i.c.v. daily for 7 days), the motility entry is “significantly increased”. Moreover, the body weight gain entry in series [4] (S38151 10 and 20 nmol/kg i.c.v. daily for 7 days, compared with control rats) is recorded as “dose-dependent reduction”.

(Values after paper PMC3527734, “Peripheral injections of melanin-concentrating hormone receptor 1 antagonist S38151 decrease food intake and body weight in rodent obesity models” (Frontiers in Endocrinology, 2012).)
